Values joined by “and” are separate entries in the source; they are usually repeats but may differ in a detail not shown here. Identical values can stand only once. Like-named read-outs stand apart in the source and are kept apart here.
Experiments:
rats = experiment: Single oral dose toxicity; assay type: in vivo, Sprague Dawley rats; conditions: rat
Protocol: Three male and three female Sprague Dawley rats per group were given a single oral administration of L-lysine-d-amphetamine at 0.1, 1.0, 10, 60, 100, or 1000 mg/kg (Table 53).
Animals found dead, or sacrificed moribund were necropsied and discarded.

[1] = Pharmacokinetics in male beagle dogs after oral or 30-min intravenous administration, 1 mg/kg (LC/MS/MS); assay type: in vivo; conditions: for AUC(0-t): read-out: AUC0-t of L-lysine-d-amphetamine; for AUC(0-inf): read-out: AUCinf of L-lysine-d-amphetamine; for Cmax: read-out: Cmax of L-lysine-d-amphetamine; for MRT: read-out: MRT of L-lysine-d-amphetamine; for half-life: read-out: t1/2 of L-lysine-d-amphetamine (converted)
Text: This was a non-randomized, two-treatment crossover study. All animals were maintained on their normal diet and were fasted overnight prior to each dose administration. L-lysine-d-amphetamine dose was based on the body weight measured on the morning of each dosing day. The actual dose delivered was based on syringe weight before and after dosing. Serial blood samples were obtained from each animal by direct venipuncture of a jugular vein using vacutainer tubes containing sodium heparin as the anticoagulant. Derived plasma samples were stored frozen until shipment to Quest Pharmaceutical Services, Inc. (Newark, Del.). Pharmacokinetic analysis of the plasma assay results was conducted by Calvert. Animals were treated as follows:
Oral: The test article was administered to each animal via a single oral gavage. On Day 1, animals received the oral dose by gavage using an esophageal tube attached to a syringe. Dosing tubes were flushed with approximately 20 mL tap water to ensure the required dosing solution was delivered.
Intravenous: On Day 8, animals received L-lysine-d-amphetamine as a single 30-minute intravenous infusion into a cephalic vein.
Blood: Serial blood samples (2 mL) were collected using venipuncture tubes containing sodium heparin. Blood samples were taken at 0, 0.25, 0.5, 1, 2, 4, 8, 12, 24, 48, and 72 hours post-oral dosing. […] Collected blood samples were chilled immediately.
Microsoft Excel (Version 6, Microsoft Corp., Redmond, Wash.) was used for calculation of mean plasma concentration and graphing of the plasma concentration-time data. Pharmacokinetic analysis (non-compartmental) was performed using the WinNonlin® software program (Version 4.1, Pharsight, Inc. Mountain View, Calif.). The maximum concentration (Cmax) and the time to Cmax(Tmax) were observed values. The area under the plasma concentration-time curve (AUC) was determined using linear-log trapezoidal rules. The apparent terminal rate constant (λz) was derived using linear least-squares regression with visual inspection of the data to determine the appropriate number of points (minimum of 3 data points) for calculating λz. The AUC0-inf was calculated as the sum of AUC0-t and Cpred/λz, where Cpred was the predicted concentration at the time of the last quantifiable concentration. The plasma clearance (CL/F) was determined as the ratio of Dose/AUC0-inf. The mean residence time (MRT) was calculated as the ratio of AUMC0-inf/AUC0-inf where AUMC0-inf was the area under the first moment curve from the time zero to infinity. The volume of distribution at steady state (Vss) was estimated as CL*MRT. Half-life was calculated as ln 2/λz. The oral bioavailability (F) was calculated as the ratio of AUC0-inf following oral dosing to AUC0-inf following intravenous dosing. Descriptive statistics (mean and standard deviation) of the pharmacokinetic parameters were calculated using Microsoft Excel.
Blood samples were collected up to 24 and 72 hours after the intravenous and oral doses, respectively.

[2] = 30 min iv, 1 mg/kg d-amphetamine base, individual dogs, 1 mg/kg
[3] = male, beagle, dog, plasma, iv, 1 mg/kg, 30 min iv, 1 mg/kg d-amphetamine base, individual dogs
[4] = male, beagle, dog, plasma, po, 1 mg/kg, oral, 1 mg/kg d-amphetamine base, individual dogs
[5] = oral, 1 mg/kg d-amphetamine base, individual dogs, 1 mg/kg

CC(Cc1ccccc1)NC(=O)C(N)CCCCN [L-lysine-d-amphetamine, 2,6-diaminohexanoic acid-(1-methyl-2-phenylethyl)-amide]
Mortality (rats; oral, 1000 mg/kg): only one death occurred out of a group of six animals | Lethal oral dose (rats; single oral administration): above 1000 mg/kg | AUC0-t of L-lysine-d-amphetamine [1, 2]: 1072.3 ng·h/mL and 914.1 ng·h/mL | Cmax of L-lysine-d-amphetamine [1, 2]: 1826.4 ng/mL and 1654.2 ng/mL | MRT of L-lysine-d-amphetamine [1, 2]: 19.2 min and 18 min | Vss of L-lysine-d-amphetamine [1, 2]: 0.6034 L/kg and 0.656 L/kg | t1/2 of L-lysine-d-amphetamine [1, 2]: 63 min | Time by which L-lysine-d-amphetamine fell below the quantifiable limit (1 ng/mL) ([1]; IV infusion, post-dose): approximately 8 hours | AUC(0-t) [1, 3]: 898 ng·h/mL | AUC(0-inf) [1, 3]: 900 ng·h/mL | clearance ([1]; male, beagle, dog, plasma, iv, 1 mg/kg, 30 min iv, 1 mg/kg d-amphetamine base, individual dogs, read-out: CL of L-lysine-d-amphetamine (converted)): 37 mL/min/kg | Cmax [1, 3]: 1470 ng/mL | MRT [1, 3]: 21.6 min | Vd ([1]; male, beagle, dog, plasma, iv, 1 mg/kg, 30 min iv, 1 mg/kg d-amphetamine base, individual dogs, read-out: Vss of L-lysine-d-amphetamine): 0.807 L/kg | half-life [1, 3]: 43.2 min | AUC(0-t) ([1]; male, beagle, dog, plasma, iv, 1 mg/kg, 30 min iv, 1 mg/kg d-amphetamine base, mean of 3 dogs): 962 ng·h/mL | clearance ([1]; male, beagle, dog, plasma, iv, 1 mg/kg, 30 min iv, 1 mg/kg d-amphetamine base, mean of 3 dogs, read-out: CL of L-lysine-d-amphetamine (converted)): 34.8 mL/min/kg | clearance ([1]; male, beagle, dog, plasma, iv, 1 mg/kg, IV 30-min infusion, 1 mg/kg, read-out: Mean clearance of L-lysine-d-amphetamine): 34.8 mL/min/kg | AUC(0-t) [1, 4]: 368 ng·h/mL | AUC(0-inf) [1, 4]: 369 ng·h/mL | CL/F ([1]; male, beagle, dog, plasma, po, 1 mg/kg, oral, 1 mg/kg d-amphetamine base, individual dogs, read-out: CL/F of L-lysine-d-amphetamine (converted)): 90.4 mL/min/kg | Cmax [1, 4]: 407 ng/mL | bioavailability ([1]; male, beagle, dog, plasma, po, 1 mg/kg, oral, 1 mg/kg d-amphetamine base, individual dogs, read-out: F (bioavailability) of L-lysine-d-amphetamine): 34.3% | MRT [1, 4]: 44.4 min | half-life [1, 4]: 28.8 min | AUC(0-t) ([1]; male, beagle, dog, plasma, po, 1 mg/kg, oral, 1 mg/kg d-amphetamine base, mean of 3 dogs): 318 ng·h/mL | AUC0-t of L-lysine-d-amphetamine [1, 5]: 310.8 ng·h/mL and 275.3 ng·h/mL | Cmax of L-lysine-d-amphetamine [1, 5]: 227.4 ng/mL and 350.2 ng/mL | F (bioavailability) of L-lysine-d-amphetamine [1, 5]: 34.0% and 30.8% | MRT of L-lysine-d-amphetamine [1, 5]: 61.8 min and 40.8 min | t1/2 of L-lysine-d-amphetamine [1, 5]: 27 min and 14.4 min
